{"source": "paper PMC4759522", "about": "“A fragment merging approach towards the development of small molecule inhibitors of Mycobacterium tuberculosis EthR for use as ethionamide boosters” (Organic & Biomolecular Chemistry, 2016)", "key": {"EthR [1]": {"target": "T1, EthR (Mycobacterium tuberculosis, UniProt P9WMC1)", "T1 sequence (P9WMC1 whole entry, looked up)": "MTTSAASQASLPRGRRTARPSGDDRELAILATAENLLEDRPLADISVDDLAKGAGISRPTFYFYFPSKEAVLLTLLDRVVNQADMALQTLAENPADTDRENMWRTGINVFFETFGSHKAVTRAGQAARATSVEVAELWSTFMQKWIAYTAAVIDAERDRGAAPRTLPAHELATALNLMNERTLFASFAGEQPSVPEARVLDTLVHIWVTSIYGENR", "assay": "SPR functional assay: disruption of the interaction between EthR and its DNA operator", "assay_type": "biochemical", "settings": "for LE: calculated using IC50 values determined by SPR; for fold improvement by SPR compared to compound 5: compared to merged compound 5", "procedure": "(§1) containing NaCl (300 mM), Tris.HCl (20 mM, pH = 8.0) and DMSO-d6 (10% v/v) was prepared and placed in the sample cell of a MicroCal iTC200 microcalorimeter (GE Healthcare). The fragment solution was then titrated to the EthR solution over 39 injections (first injection of 0.4 μl and subsequent injections of 1.0 μl). Data was fitted to a one site binding model using Origin software.\n(§2) Figure S6 ITC trace for 4-(4-(3-Oxo-3-(pyrrolidin-1-yl)propyl)piperidin-1-yl)benzonitrile 15 Surface plasmon resonance (SPR)\n(§3) The SPR assay was carried out using a BIAcore T100 instrument as described previously.2 The assay was designed to measure the interaction of EthR with the ethA promoter DNA sequence (106 bp – experimental DNA), immobilised via biotin-streptavidin linkage onto an […]\n(1 picture or pasted object on this page, not shown here)\nSA Series S Sensor Chip (BIAcore). DNA from pUC19 (113 bp) was used as the control against non-specific binding. The experimental (106 bp) and control (113 bp) DNA fragments were produced as described previously.15,16 Biotinylated control and experimental DNA were immobilized to the chip surface to achieve stable fixation levels of 247 and 252 resonance units (RU) respectively.\nFor screening, EthR/ fragment solution (1-2 μM EthR and required concentration of fragment made up in running buffer (2 mM MgCl2, 10 mM Tris-Cl pH 7.5, 0.1 mM EDTA, 200 mM NaCl, 2% (v/v) DMSO) was flowed over the chip at 20 μL/min for 180 s. The dissociation time was 180 s. To determine binding levels, the response of the control channel at steady state was subtracted from that of the experiment channel. The chip was regenerated between samples using 0.03% w/v SDS in running buffer (passed at a flow rate of 20 μL/ min for 60 […]\nFor IC50 calculations, the SPR response of EthR binding to the immobilized DNA was measured at various concentrations of compound. The resulting RUs were used to fit the data using nonlinear regression with variable slope dose-response inhibition constrains on GrapfPad PRISM 5.00. IC50 values were calculated as the compound concentrations necessary to inhibit 50% of the maximal interaction between EthR and its DNA operator […]\nFigure S7 IC50 curve (SPR) for N-((1-(4-Cyanophenyl)piperidin-4-yl)methyl)pyrrolidine-1-"}, "EthR [2]": {"target": "T1, EthR", "assay": "Fluorescence-based thermal shift (DSF) against EthR", "assay_type": "binding", "settings": "fluorescent-based thermal shift against EthR, 100 μM compound"}, "EthR [3]": {"target": "T1, EthR", "assay": "Isothermal titration calorimetry (ITC) binding to EthR", "settings": "for K D (ITC): n.d. = no heats of binding detected", "description": "Figure S5 Crystal structure of 28 bound to EthR (the two different binding modes for this ligand are super-imposed). Although the conformations of the side chains of residues Phe184 and Trp138 preclude the formation of sub-pockets III and IV in the sense of Figure S3, compound 28 is still capable of binding to the protein by altering the shape of the EthR hydrophobic cavity and moulding it around its own scaffold. (PDB code 5F0H) […]\nDifferential scanning fluorimetry (DSF)\nDSF measurements were carried out using a Bio-Rad CFX Connect machine with a 96-well reaction module. Samples (50 μl each) containing EthR (20 μM), NaCl (150 mM), Tris.HCl (20 mM, pH = 8.5), SYPRO orange (2.5x) and test compound (100 µM) in water were prepared in 96-well plates. The 96-well plates were heated linearly from 25 °C to 95 °C using a temperature increment of 0.5 °C every 30 seconds. Melting curves represent plots of the fluorescence emission intensity at λmax 490/575 nm of each sample against temperature.\nMelting temperatures (Tm) were determined as the temperatures at which the minima on the negative first derivatives of the melting curves occurred.\nIsothermal titration calorimetry (ITC)\nAn aqueous solution of the fragment to be tested (1 mM) was prepared containing NaCl (300 mM), Tris.HCl (20 mM, pH = 8.0), d6-DMSO (10% v/v) and glycerol (to match the 10% v/v glycerol content in the EthR stock solution). A separate aqueous solution of EthR (50 μM) […]\n(1 picture or pasted object on this page, not shown here) […]\nas §1, §2, §3"}}, "note": "Where two headings read alike, the source gives them in different places.", "data": [{"smiles": "CNCc1ccc(N2CCCCC2)cc1", "note": "[Compound 2]", "values": [{"measurement": "IC50", "setting": "EthR [1]; disruption of EthR binding to its DNA operator, SPR, read-out: IC50 (SPR)", "result": "> 100", "unit": "µM"}, {"measurement": "ΔT m", "setting": "EthR [2]", "result": "+3.8 °C"}]}, {"smiles": "CNCc1ccc(N2CCC(CCC(=O)N3CCCC3)CC2)cc1", "note": "[Compound 5]", "values": [{"measurement": "Kd", "setting": "EthR [3]", "result": 5, "unit": "µM"}, {"measurement": "IC50", "setting": "EthR [1]", "result": 35, "unit": "µM"}, {"measurement": "fold improvement in disruption of EthR-DNA interaction (SPR IC50) compared to starting fragment 1", "setting": "EthR [1]; compared to fragment 1", "result": "eight-fold"}, {"measurement": "ΔT m", "setting": "EthR [2]", "result": "+4.3 °C"}]}, {"smiles": "N#Cc1ccc(N2CCC(CCC(=O)N3CCCC3)CC2)cc1", "note": "[Compound 15, 4-(4-(3-Oxo-3-(pyrrolidin-1-yl)propyl)piperidin-1-yl)benzonitrile]", "values": [{"measurement": "Kd", "setting": "EthR [3]", "result": 1, "unit": "µM"}, {"measurement": "fold decrease in K D by ITC compared to compound 5", "setting": "EthR [3]; compared to compound 5", "result": "five-fold"}, {"measurement": "IC50", "setting": "EthR [1]", "result": 3, "unit": "µM"}, {"measurement": "LE", "setting": "EthR [1]", "result": 0.34}, {"measurement": "fold improvement by SPR compared to compound 5", "setting": "EthR [1]", "result": 10, "unit": "fold"}, {"measurement": "ΔT m", "setting": "EthR [2]", "result": "+7.5 °C"}]}, {"smiles": "O=C(NCC1CCN(c2ncccn2)CC1)N1CCCC1", "note": "[Compound 22]", "values": [{"measurement": "Kd", "setting": "EthR [3]", "result": 12, "unit": "µM"}, {"measurement": "IC50", "setting": "EthR [1]", "result": 20, "unit": "µM"}, {"measurement": "ΔT m", "setting": "EthR [2]", "result": "+3.7 °C"}]}, {"smiles": "CCOC(=O)c1ccc(N2CCC(CCC(=O)N3CCCC3)CC2)cc1", "note": "[Compound 16]", "values": [{"measurement": "K D (ITC)", "setting": "EthR [3]", "result": "binding could not be measured by ITC"}, {"measurement": "IC50", "setting": "EthR [1]", "result": 3, "unit": "µM"}, {"measurement": "ΔT m", "setting": "EthR [2]", "result": "+9.3 °C"}]}, {"smiles": "O=C(CCC1CCCC1)N1CCCC1", "note": "[Compound 1]", "values": [{"measurement": "Kd", "setting": "EthR [3]", "result": 12, "unit": "µM"}, {"measurement": "IC50", "setting": "EthR [1]", "result": 280, "unit": "µM"}, {"measurement": "LE", "setting": "EthR [1]", "result": 0.36}, {"measurement": "ΔT m", "setting": "EthR [2]", "result": "+3.5 °C"}]}, {"smiles": "CN(Cc1ccc(N2CCC(CCC(=O)N3CCCC3)CC2)cc1)C(=O)OC(C)(C)C", "note": "[Compound 14]", "values": [{"measurement": "Kd", "setting": "EthR [3]", "result": 3, "unit": "µM"}, {"measurement": "IC50", "setting": "EthR [1]", "result": 7, "unit": "µM"}, {"measurement": "fold improvement by SPR compared to compound 5", "setting": "EthR [1]", "result": "five-fold"}, {"measurement": "ΔT m", "setting": "EthR [2]", "result": "+6.3 °C"}]}, {"smiles": "CCOC(=O)c1ccc(N2CCC(CNC(=O)N3CCCC3)CC2)cc1", "note": "[Compound 18]", "values": [{"measurement": "IC50", "setting": "EthR [1]", "result": 2, "unit": "µM"}, {"measurement": "ΔT m", "setting": "EthR [2]", "result": "+8.8 °C"}]}, {"smiles": "N#Cc1ccc(N2CCC(CCC(=O)Nc3cccc(N4CCCCC4)c3)CC2)cc1", "note": "[Compound 23, 3-(1-(4-cyanophenyl)piperidin-4-yl)-N-(3-(piperidin-1-yl)phenyl)propanamide]", "values": [{"measurement": "K D (ITC)", "setting": "EthR [3]", "result": "could not be observed by ITC"}, {"measurement": "IC50", "setting": "EthR [1]", "result": "> 100", "unit": "µM"}]}, {"smiles": "N#Cc1ccc(N2CCC(CNC(=O)C3CCCC3)CC2)cc1", "note": "[Compound 19]", "values": [{"measurement": "IC50", "setting": "EthR [1]", "result": 25, "unit": "µM"}, {"measurement": "ΔT m", "setting": "EthR [2]", "result": "+5.9 °C"}]}, {"smiles": "N#Cc1ccc(N2CCC(CCC(=O)NCc3cccc(N4CCCCC4)c3)CC2)cc1", "note": "[Compound 29]", "values": [{"measurement": "K D (ITC)", "setting": "EthR [3]", "result": "could not be observed by ITC"}, {"measurement": "IC50", "setting": "EthR [1]", "result": 52, "unit": "µM"}, {"measurement": "ΔT m", "setting": "EthR [2]", "result": "+9.2 °C"}]}, {"smiles": "CNCc1ccc(N2CCCN(C(=O)CCC3CCCC3)C2)cc1", "note": "[Compound 3, 3-cyclopentyl-1-(3-(4-((methylamino)methyl)phenyl)tetrahydropyrimidin-1(2H)-yl)propan-1-one]", "values": [{"measurement": "IC50", "setting": "EthR [1]", "result": "> 100", "unit": "µM"}]}, {"smiles": "N#Cc1ccc(N2CCC(CNC(=O)N3CCCC3)CC2)cc1", "note": "[Compound 17, N-((1-(4-Cyanophenyl)piperidin-4-yl)methyl)pyrrolidine-1-carboxamide]", "values": [{"measurement": "IC50", "setting": "EthR [1]", "result": 4, "unit": "µM"}, {"measurement": "ΔT m", "setting": "EthR [2]", "result": "+7.2 °C"}]}, {"smiles": "N#Cc1ccc(N2CCC(CCC(=O)NCc3ccc(N4CCCCC4)cc3)CC2)cc1", "note": "[Compound 28]", "values": [{"measurement": "K D (ITC)", "setting": "EthR [3]", "result": "could not be observed by ITC"}, {"measurement": "IC50", "setting": "EthR [1]", "result": 33, "unit": "µM"}]}, {"smiles": "CCOC(=O)c1ccc(N2CCC(CNC(=O)C3CCCC3)CC2)cc1", "note": "[Compound 20]", "values": [{"measurement": "IC50", "setting": "EthR [1]", "result": "> 100", "unit": "µM"}, {"measurement": "ΔT m", "setting": "EthR [2]", "result": "+5.5 °C"}]}, {"smiles": "O=C(NCC1CCN(c2ccccn2)CC1)N1CCCC1", "note": "[Compound 21]", "values": [{"measurement": "Kd", "setting": "EthR [3]", "result": 24, "unit": "µM"}, {"measurement": "IC50", "setting": "EthR [1]", "result": 22, "unit": "µM"}, {"measurement": "LE", "setting": "EthR [1]", "result": 0.31}, {"measurement": "ΔT m", "setting": "EthR [2]", "result": "+3.8 °C"}]}, {"smiles": "O=C(CCC1CCCC1)Nc1cccc(N2CCCCC2)c1", "note": "[Compound 4]", "values": [{"measurement": "IC50", "setting": "EthR [1]", "result": "> 100", "unit": "µM"}, {"measurement": "ΔT m", "setting": "EthR [2]", "result": "+4.5 °C"}]}]}
